# Experiments:
# [1] = CACO-2 permeability; type: in vitro ADME; conditions: human; for efflux ratio at 120 min, 2 µM: Caco-2, pH 7.4; for Papp A→B at 120 min, 2 µM: Caco-2, pH 7.4, A to B
# Method: This study was conducted at Wuxi (http://www.wuxi.com/). Caco-2 cells (ATCC) were seeded onto polyethylene membranes in 96-well BD insert plates at 1 × 10^5 cells/cm^2, and the medium was changed every 4 days until the 21st to 28th day for confluent cell monolayer formation. Test compounds were diluted with transport buffer (HBSS with 10 mM HEPES at pH 7.4 ± 0.05) to a concentration of 2 µM (final DMSO concentration adjusted to <1%) and tested bi-directionally to investigate P-glycoprotein-mediated efflux in duplicate. Controls: digoxin (10 μM, bi-directionally), nanodolol and metoprolol (2 μM, apical, A, to basolateral, B). The permeation was assessed over a 120-minute incubation at 37 °C ± 1 °C and 5% CO2 at saturated humidity without shaking. Samples were mixed with acetonitrile containing internal standard and centrifuged at 1520 g for 10 min. Then, 100-μL aliquots of supernatant solutions were diluted with 100 μL of pure water. Concentrations of test and control compounds in starting solution, donor solution, and receiver solution were quantified by LC-MS/MS using a peak area ratio of analyte to internal standard. Permeation of lucifer yellow through the monolayer was measured to evaluate the cellular integrity. The results are the average of two biological replicates.
# [2] = Plasma protein binding (equilibrium dialysis); type: in vitro ADME; conditions: pH 7.4, Human
# Method: This study was conducted by Equilibrium Dialysis at Wuxi (http://www.wuxi.com/). HT Dialysis plate (Model HTD 96 b, Cat# 1006) and the dialysis membrane (molecular weight cutoff of 12–14 kDa, Cat# 1101) were purchased from HT Dialysis LLC (Gales Ferry, CT). Human plasma (BioIVT, # […]2P2N) and CD-1 mouse plasma (Beijing Vital River Laboratory Animal Technology Co., Ltd.) were thawed prior to experiments under running cold tap water and centrifuged at 3320 × g for 5 min to remove any clots, and the pH was checked. Only plasma from pH 7.0 to 8.0 was used. The dialysis membrane was pretreated according to the manufacturer’s instructions. Test compounds and warfarin (control) were assayed at a final concentration of 2 μM. Aliquots of 50 μL loading plasma (matrix) containing test or control compound in triplicate were transferred to Sample Collection Plates, respectively. The samples were matched with opposite blank buffer to obtain a final volume of 100 μL with a volume ratio of plasma (matrix) to dialysis buffer (1:1, v-v) in each well immediately. […] Concentrations of test compounds in the starting solution (before dialysis), the plasma side of the membrane, and the buffer side of the membrane were quantified by LC-MS/MS using a peak area ratio of analyte/internal standard. The fraction of unbound, bound, and recovery were calculated. […]
# [3] = biological target: T1, G9a (Homo sapiens, UniProt Q96KQ7); test: Epigenetic panel (BPS Bioscience); G9a TR-FRET IC50; type: biochemical
# T1 sequence (Q96KQ7 1-1210): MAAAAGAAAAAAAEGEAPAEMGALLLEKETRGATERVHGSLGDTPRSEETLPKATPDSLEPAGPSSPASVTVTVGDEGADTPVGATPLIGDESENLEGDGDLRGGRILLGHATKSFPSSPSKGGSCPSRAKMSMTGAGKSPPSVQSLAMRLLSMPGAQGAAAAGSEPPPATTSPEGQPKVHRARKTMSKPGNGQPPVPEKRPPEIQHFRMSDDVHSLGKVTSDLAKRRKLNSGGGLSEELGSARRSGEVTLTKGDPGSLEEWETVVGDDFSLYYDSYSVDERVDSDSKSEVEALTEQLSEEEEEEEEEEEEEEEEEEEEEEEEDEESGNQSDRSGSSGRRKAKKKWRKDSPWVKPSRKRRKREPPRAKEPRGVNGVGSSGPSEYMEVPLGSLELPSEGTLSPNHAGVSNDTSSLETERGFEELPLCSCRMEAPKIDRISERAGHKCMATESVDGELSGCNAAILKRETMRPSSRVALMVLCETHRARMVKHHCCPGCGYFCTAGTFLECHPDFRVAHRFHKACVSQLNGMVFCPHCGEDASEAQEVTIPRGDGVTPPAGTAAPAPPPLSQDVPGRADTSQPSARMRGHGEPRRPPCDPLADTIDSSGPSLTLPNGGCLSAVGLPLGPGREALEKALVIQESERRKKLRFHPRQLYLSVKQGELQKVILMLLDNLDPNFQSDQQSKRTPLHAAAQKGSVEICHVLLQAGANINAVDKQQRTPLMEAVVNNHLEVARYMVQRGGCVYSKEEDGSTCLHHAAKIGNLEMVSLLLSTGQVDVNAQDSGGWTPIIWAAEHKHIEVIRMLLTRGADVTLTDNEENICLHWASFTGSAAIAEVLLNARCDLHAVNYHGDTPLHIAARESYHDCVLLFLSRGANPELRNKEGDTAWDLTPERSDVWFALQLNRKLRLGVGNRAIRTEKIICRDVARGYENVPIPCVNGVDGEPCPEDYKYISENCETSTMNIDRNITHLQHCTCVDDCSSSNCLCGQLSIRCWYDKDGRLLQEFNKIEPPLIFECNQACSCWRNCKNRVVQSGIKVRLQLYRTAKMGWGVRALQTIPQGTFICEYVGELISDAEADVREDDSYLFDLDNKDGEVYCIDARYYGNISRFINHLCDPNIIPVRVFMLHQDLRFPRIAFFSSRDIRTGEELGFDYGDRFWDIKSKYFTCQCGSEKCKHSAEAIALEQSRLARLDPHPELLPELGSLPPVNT
# Method: DNMT1 and G9a IC50 values were measured using time-resolved fluorescence energy transfer assays, as described previously[18],[25],[26].
# Binding experiments were performed in duplicate at a concentration of 10 μM.
SMILES,"efflux ratio at 120 min, 2 µM [1]","Papp A→B at 120 min, 2 µM [1]","fraction unbound at 4 h, 2 µM [2]",IC50 [3],inhibition at 10 µM [3]
"COc1cc2nc(-c3ccc(C)o3)cc(NCC3CCN(c4ncc(C(=O)NO)cn4)CC3)c2cc1OC [CM-444, 2-[4-[[[6,7-dimethoxy-2-(5-methyl-2-furyl)-4-quinolyl]amino]methyl]-1-piperidyl]pyrimidine-5-carbohydroxamic acid]",> 1050,< 0.01 ×10⁻⁶ cm/s,0.011 ± 0.001,> 10 µM,0%
"COc1cc2nc(-c3cc(C)oc3C)cc(NCC3CCN(c4ncc(C(=O)NO)cn4)CC3)c2cc1OC [CM-1758, 2-[4-[[[2-(2,5-dimethyl-3-furyl)-6,7-dimethoxy-4-quinolyl]amino]methyl] -1-piperidyl]pyrimidine-5-carbohydroxamic acid]",> 1050,< 0.01 ×10⁻⁶ cm/s,0.01,> 10 µM,9%
